Reference: patent US20120302584A1, “NOVEL SALTS FORMS OF PYRIMIDIN-5-YL ACETIC ACID DERIVATIVE” (BOEHRINGER INGELHEIM INTERNATIONAL GMBH, priority 2009, published 2012)
Values after ≈ are worked out from the molar mass of the structure shown. Structures can show the parent of a compound that is named as a salt.

Experiments:
[1] = Kinetic solubility in sodium dodecyl sulfate solution at pH 6.8 and 37° C.; format: physicochemical; conditions: for maximum solubility (kinetic solubility): pH 6.8, 0.2% sodium dodecyl sulfate (SDS) solution, after about 5 minutes
Experimental: FIG. 7 also depicts comparative kinetic solubility for the acid-free form of the compound of formula (I)(♦), a choline salt of the compound of formula (I)( ? ), and an ethylenediamine salt of the compound of formula (I) (▴).
After 60 minutes, the solubilities ranged from about 150 μg/mL (for the ethylenediamine salt of the compound of formula (I)) to about 245 μg/mL (for the choline salt of the compound of formula (I)).

[2] = Dynamic vapor sorption (water sorption/desorption); format: physicochemical; conditions: 25° C.; for hygroscopicity (in words): conditions used in this analysis
Experimental: Vapor sorption/desorption was carried out using Surface Measurement Systems DVS-HT. Samples were placed into a foil insert placed on a sample pan. […] The equilibrium point of each step was reached when 0.002% of weight change was reached.

[3] = pH 6.8, 0.2% SDS solution, after 60 minutes

Compound | maximum solubility (kinetic solubility) [1] | hygroscopicity (in words) [2] | moisture gain through 85% relative humidity [2] | solubility after 60 minutes (kinetic solubility) [1, 3] | also measured
CN(C)c1nc(Cc2ccc(NC(=O)c3ccc(C(F)(F)F)cc3)cc2)nc(N(C)C)c1CC(=O)O [[4,6-bis(dimethylamino)-2-(4-{[4-(trifluoromethyl)benzoyl]amino}benzyl)pyrimidin-5-yl] acetic acid, reference compound] | – | – | – | – | solubility kinetic at 60 min ([1]; 0.2% sodium dodecyl sulfate (SDS) solution, 37 °C, pH 6.8, aqueous with cosolvent or surfactant or cyclodextrin, pH 6.8, 0.2% SDS solution, after 60 minutes): ~245 µg/mL (≈ 489 µM)
CN(C)c1nc(Cc2ccc(NC(=O)c3ccc(C(F)(F)F)cc3)cc2)nc(N(C)C)c1CC(=O)O [sodium salt of the invention, [4,6-bis(dimethylamino)-2-(4-{[4-(trifluoromethyl)benzoyl]amino}benzyl)pyrimidin-5-yl] acetic acid] | about 1010 μg/mL | hygroscopic | about 17% | – | moisture gain through 55% relative humidity ([2]; 55% relative humidity): less than 2%
CN(C)c1nc(Cc2ccc(NC(=O)c3ccc(C(F)(F)F)cc3)cc2)nc(N(C)C)c1CC(=O)O [free acid form of the compound of formula (I)] [[4,6-bis(dimethylamino)-2-(4-{[4-(trifluoromethyl)benzoyl]amino}benzyl)pyrimidin-5-yl] acetic acid] | about 50 μg/mL | – | – | essentially unchanged | –

More lines, main results first:

maximum solubility (kinetic solubility) [1] | hygroscopicity (in words) [2] | moisture gain through 85% relative humidity [2] | solubility after 60 minutes (kinetic solubility) [1, 3] | Compound | also measured
– | – | – | about 150 μg/mL | CN(C)c1nc(Cc2ccc(NC(=O)c3ccc(C(F)(F)F)cc3)cc2)nc(N(C)C)c1CC(=O)O [ethylenediamine salt of the compound of formula (I)] [[4,6-bis(dimethylamino)-2-(4-{[4-(trifluoromethyl)benzoyl]amino}benzyl)pyrimidin-5-yl] acetic acid, reference compound] | maximum solubility (kinetic solubility) ([1]; listed as ethylenediame salt of the compound of formula (I)): about 670 μg/mL
about 960 μg/mL | – | – | – | CN(C)c1nc(Cc2ccc(NC(=O)c3ccc(C(F)(F)F)cc3)cc2)nc(N(C)C)c1CC(=O)O [choline salt of the compound of formula (I)] [[4,6-bis(dimethylamino)-2-(4-{[4-(trifluoromethyl)benzoyl]amino}benzyl)pyrimidin-5-yl] acetic acid, reference compound] | –
about 910 μg/mL | mild hygroscopicity | about 3.7% | – | CN(C)c1nc(Cc2ccc(NC(=O)c3ccc(C(F)(F)F)cc3)cc2)nc(N(C)C)c1CC(=O)O [N-methyl-D-glucamine salt of the invention] [[4,6-bis(dimethylamino)-2-(4-{[4-(trifluoromethyl)benzoyl]amino}benzyl)pyrimidin-5-yl] acetic acid] | –
